For test [1], the system named is MDA-MB-231 (estrogen-independent breast cancer). The experiment in a line: SRB assay, MDA-MB-231. Type of test: cell-based. The conditions noted are these: Homo sapiens, MDA-MB-231 cells, 48 h. As to the method:
(§1) Human cancer A549 (non-small cell lung cancer), MDA-MB-231 (estrogen-independent breast cancer), Hep 3B (hepatoma), and HA22T (hepatoma) cells were seeded in 96-well plates in medium with 5% FBS. After 24 h, cells were fixed with 10% trichloroacetic acid (TCA) to represent cell population at the time of compound addition (T0). After additional incubation of DMSO or test compound for 48 h, cells were fixed with 10% TCA and SRB at 0.4% (w/v) in 1% acetic acid was added to stain cells. Unbound SRB was washed out by 1% acetic acid and SRB bound cells were solubilized with 10 mM Trizrna base. The absorbance was read at a wavelength of 515 nm. Using the absorbance measurements of time zero (T0), the control group (C), and the cell growth in the presence of the compound (Ti), the percentage growth was calculated at each of the compound concentrations levels.

A further test concerns NB4. The experiment in a line: cells. As to the method: (§2) 10^4 cells per well were seeded in 96-well culture plates with or without one of the test compounds. Various concentrations for the test compound were examined. […] The drug concentration resulting in total growth inhibition (TGI) is determined when Ti=Tz.
(§3) Cells were seeded in a 96-well flat-bottomed plate (2,500 to 3,000 cells per well). […] After being incubated at 37° C. for 2 h, the supernatant was removed and 200 μl/well of DMSO were added to dissolve the remaining MTT dye. The absorbance at 570 nm in each well was determined using a plate reader.

Another test relates to K562. Briefly: cells. How it is done: as §2, §3
The next test has as its system U937. The experiment in a line: cells. As to the method: as §2, §3
A further test deals with MV4-11. Briefly: cells. How it is done:
as §2, §3

For another test, the system named is HL60. Briefly: cells. How it is done:
as §2, §3

For test [2], the system named is A549 (non-small cell lung cancer). Briefly: SRB assay, A549. The conditions noted are these: Homo sapiens, A549 cells, 48 h. The format is cell-based, Human. As to the method:
as §1

The next test deals with Hep 3B (hepatoma). The experiment in a line: SRB assay, Hep 3B. As to conditions: Homo sapiens, Hep3B, Hep-3B cells, 48 h, read-out: Hep-3B liver GI50. The format is cell-based. How it is done: as §1
The subject of a further test is PC-3 cells. Briefly: Western blot analysis. Type of test: cell-based. As to conditions: PC-3 cells, 1, 2.5, or 5 μM, 48 hours. How it is done:
PC-3 cells treated with a test compound at 1, 2.5, or 5 μM in RPMI 1640 supplemented with 10% FBS for 48 hours. The cells were collected and sonicated. Protein concentrations in the resultant lysates were determined by a Bradford protein assay kit (Bio-Rad, Hercules, Calif.). The protein lysate, containing the same amount of proteins, were subjected to 10% SDS-polyacrylarnide gel (10%) electrophoresis. The proteins on the gel were then transferred onto an Immobilon-nitrocellulose membrane (Millipore, Bellerica, Mass.) in a semi-dry transfer cell. The transblotted membrane was washed twice with tris-buffered saline containing 0.1% Tween 20 (TBST). After being blocked with TBST containing 5% nonfat milk for 40 min, the membrane was incubated with a primary antibody specific to Acetyl-H3 (antibody obtained from Upstate Biotechnology, Inc., Lake Placid, N.Y.), H3 (Upstate Biotechnology), Acetyl α-tubulin (Sigma-Aldrich, St. Louis, Mo.), phospho-Akt (Serine 473) (Cell Signaling Technologies, Danvers, Mass.), Akt (Cell Signaling Technologies), Acetyl p53 (Santa Cruz Biotechnology, Santa Cruz, Calif.), p53 (Santa Cruz Biotechnology), p21 (Santa Cruz Biotechnology), or α-tubulin (Sigma-Aldrich, St. Louis, Mo.) (1:3000 dilution) in TBST/1% nonfat milk at 4 overnight. The membrane was washed three times with TBST for a total of 15 min and then incubated with a goat anti-rabbit or anti-mouse IgG antibody conjugated with horseradish (diluted 1:3000) for 1 h at room temperature. After being washed for at least three times with TBST, the signal intensity for each protein band was determined.

Another test relates to HA22T (hepatoma). Briefly: SRB assay, HA22T. Type of test: cell-based, Human. The conditions noted are these: Homo sapiens, HA22T cells, 48 h, read-out: HA22T liver GI50. As to the method:
as §1

In the case of `O=C(C=Cc1ccc2c(c1)CCN2S(=O)(=O)c1ccccc1)NO` [Compound 12, 3-(1-benzenesulfonyl-2,3-dihydro-1H-indol-5-yl)-N-hydroxy-acrylamide], the GI50 in [1] was 250 nM; in the test with NB4 (Homo sapiens, NB-4), 31.5 nM; with K562 (Homo sapiens, K562), 149 nM; in the test with U937 (Homo sapiens, U-937), 54.7 nM; with MV4-11 (Homo sapiens, MV4-11), 13.1 nM; in the test on HL60 (Homo sapiens, HL-60), 32.9 nM. Moreover, the GI50 in test [2] was 700 nM; in the test with Hep 3B (hepatoma), 210 nM; with HA22T (hepatoma), 620 nM. The CC50 in the test with NB4 (Homo sapiens, NB-4, read-out: LC50) is 91 nM; in the test on K562 (Homo sapiens, K562, read-out: LC50), more than 10000 nM; in the test on U937 (Homo sapiens, U-937, read-out: LC50), more than 10000 nM; in the test with MV4-11 (Homo sapiens, MV4-11, read-out: LC50) it was 87.2 nM. The TGI was determined as 61.2 nM with NB4 (NB4 leukemia cells, MTT, 48 or 72 hr); 982.0 nM in the test with K562 (K562 leukemia cells, MTT, 48 or 72 hr); 8330.0 nM in the test on U937 (U937 leukemia cells, MTT, 48 or 72 hr); 50.2 nM in the test on MV4-11 (MV4-11 leukemia cells, MTT, 48 or 72 hr); 65.3 nM in the test on HL60 (HL60 leukemia cells, MTT, 48 or 72 hr). In addition, the H3 expression result in the test on PC-3 cells is recorded as “upregulated”. The histone deacetylation entry in the test on PC-3 cells was “inhibited”. The tubulin acetylation result in the test on PC-3 cells is recorded as “upregulated”.

The values above are taken from patent publication US9598364B2, “Indolyl or indolinyl hydroxamate compounds” (Taipei Medical University, priority 2010, dated 2017).
